In patent US20250144172A1, “ANTI-FIBROTIC SIALIDASE INHIBITOR COMPOUNDS AND METHODS OF USE” (The Texas A&M University System, priority 2016, published 2025):
Values belong to the compound of their own block, whether it stands above or below them.

Columns and labels:
[1] = test system: mice with bleomycin-induced fibrosis; test: mouse bleomycin model of pulmonary fibrosis; format: in vivo; details: day 21
Method: The successful aspiration of bleomycin into the lungs was confirmed by listening for a crackling noise heard after the aspiration. Mice were weighed daily, and euthanized using CO2 following NIH guidelines at day 21 after bleomycin aspiration. The experiment was performed in accordance with the recommendations in the Guide for the Care and Use of Laboratory Animals of the National Institutes of Health. The Texas A&M University Animal Use and Care Committee approved the protocol.
The BALs were clarified by centrifugation at 500×g for 10 minutes, and the supernatants were transferred to Eppendorf tubes. The supernatants were flash frozen with liquid nitrogen, and stored at −20° C. until further use.
After collection of BAL fluid, mouse lungs were inflated with prewarmed Optimal Cutting Temperature (OCT) embedding medium (VWR, Radnor, PA) and then embedded in OCT, frozen on dry ice, and then stored at −80° C. 6-micron cryosections of mouse lungs were mounted on Superfrost Plus® microscope slides (VWR). The sections on the slides were allowed to air-dry for 24-48 hours. The slides were then fixed in acetone at room temperature for 20 minutes and air-dried for 10 minutes.
Then, starting 24 hours after bleomycin had been administered, the mice were given daily intraperitoneal injections of 10 mg/kg DANA (Calbiochem) in PBS or 10 mg/kg oseltamivir (Sigma) in PBS. Both inhibitors are quite polar and thus probably remain in the extracellular space. Assuming 2 ml of extracellular space in a 20 gram mouse, these doses would then be ˜3 μM. At day 21, mice were sacrificed and BAL and cryosections of lungs were obtained as described for Example 3. The experiment was performed in accordance with the recommendations in the Guide for the Care and Use of Laboratory Animals of the National Institutes of Health. The Texas A&M University Animal Use and Care Committee approved the protocol.
Treatment of mice with oropharyngeal bleomycin results in an initial inflammation, and then a fibrosis that has begun by day 10 after bleomycin treatment. To determine if sialidase inhibitors decrease fibrosis when treatment starts after the initial inflammation stage and when fibrosis is present, mice were treated with oropharyngeal bleomycin to induce symptoms of pulmonary fibrosis as described above. Then, starting 10 days after bleomycin had been administered, the mice were given daily intraperitoneal injections of 10 mg/kg DANA (Calbiochem) in PBS or 10 mg/kg oseltamivir (Sigma) in PBS. At day 21, mice were sacrificed and BAL and cryosections of lungs were obtained as described above. The experiment was performed in accordance with the recommendations in the Guide for the Care and Use of Laboratory Animals of the National Institutes of Health. The Texas A&M University Animal Use and Care Committee approved the protocol.
To determine if sialidase inhibitors could also reduce TGF-β1 levels in mice, mice were treated with bleomycin or saline, then injected daily with saline, DANA or oseltamivir starting at day 10 after bleomycin treatment, as described in Example 9. The mice were euthanized at day 21 and sections of lung tissue were stained for TGF-β1. Results are presented in FIG. 11A and are representative of results for three mice per group.

human PBMC [2] = test: TGF-β1 accumulation by human PBMC (antibody staining and ELISA); format: cell-based
Method: To determine if sialidases might cause cells to accumulate intracellular and extracellular TGF-β1, human PBMC were cultured with sialidases in 96 well plates at 5×10^5 cells/ml and 200 μl/well in FibroLife serum-free medium for five days, then air dried. The levels of TGF-β1 in or on the cells was detected by staining with an antibody against TGF-β1. Photomicrographs were analyzed by counting stained cells (FIG. 7B) and quantifying staining intensity using ImageJ (FIG. 7C).
PBMC were cultured in 96 well plates at 5×10^5 cells/ml and 200 μl/well in FibroLife serum-free medium. When the cells were plated, recombinant human sialidases were added to final concentrations of 200 ng/ml, and DANA or oseltamivir were added to 3 μM. After 5 days, culture supernatants were analyzed using a TGF-β1 ELISA kit (R&D Systems).

human NEU3 = human NEU3 (Homo sapiens (Human), UniProt Q9UQ49); test: human NEU3 sialidase inhibition; details: read-out: NEU3 IC50; human NEU3
human PBMC [3] = test: fibrocyte formation in human PBMC, serum-free medium; format: cell-based; details: 5 days; for fibrocyte formation / differentiation: 100 ng/ml sialidase, 10 μg/ml DANA or 1 μg/ml SAP
Method: Human peripheral blood was collected from healthy adult volunteers who gave written consent and with specific approval from the Texas A&M University human subjects Institutional Review Board. Peripheral blood mononuclear cells (PBMC) were isolated from blood using Ficoll-Paque Plus (GE Healthcare Biosciences, Piscataway, NJ). Human PBMC were incubated in serum-free medium (FibroLife basal media (LM-0001, Lifeline Cell Technology, Walkersville, MD), supplemented with 10 mM HEPES (Sigma-Aldrich, St. Louis, MO), 1x non-essential amino acids (Sigma-Aldrich), 1 mM sodium pyruvate (Sigma-Aldrich), 2 mM glutamine (Invitrogen, Carlsbad, CA), 100 U/ml penicillin, 100 μg/ml streptomycin (Sigma-Aldrich), and 1x ITS-3 (Sigma-Aldrich) in the presence of absence of 100 ng/ml recombinant human sialidases (Origene, Rockville MD), 10 μg/ml DANA (Calbiochem, San Diego, CA), or 1 μg/ml human SAP (Calbiochem). After 5 days, fibrocytes were counted, and results are presented in FIG. 5.

[4] = test system: human monocytes and lymphocytes; test: sialidase levels in human PBMC cultured with IL-6 (flow cytometry); format: cell-based; details: 100 and 1000 pg/ml IL-6; three days
Method: To determine the effects of IL-6 on NEU3 production by human PBMC, PBMC were cultured as above in serum-free medium at 10^5 cells/ml with 2 ml/well in 6-well tissue culture plates (VWR) in the presence or absence of recombinant human interleukin-6 (IL-6) (BioLegend). After three days, the medium was carefully removed and the cells were washed with 1 ml of phosphate buffered saline (PBS) at room temperature. The cells were detached with 500 μl of Accutase cell detachment solution (VWR) per well for 6 minutes at 37° C. 1000 μl RPMI medium supplemented as described above with BCS, penicillin, streptomycin and glutamine was added per well to neutralize the Accutase. After pipetting the cell solutions 4 times, the cells were placed in sterile 1.7 ml microtubes (Genesee Scientific, San Diego, CA) and cells were collected by centrifugation at 5000×g for 10 minutes at 4° C. The pelleted cells were washed twice by resuspension with 1000 μl of ice-cold PBS and centrifugation. The cells were resuspended in 200 μl of ice-cold 2% (w/v) paraformaldehyde (EMS, Hatfield, PA), in PBS for 10 minutes on ice for fixation. 1000 μl of ice-cold PBS was added and cells were collected by centrifugation. The cells were resuspended in 200 μl of ice-cold 2% (w/v) bovine serum albumin (BSA) (VWR) in PBS (PBSA), for 10 minutes on ice for blocking. […]

[5] = recombinant human sialidase activity, 4MU-NANA cleavage at pH 6.4 and 7.0; format: biochemical
Method: In general, sialidase activity, including human sialidase activity, may be assessed at 37° C. in the presence of buffers ranging in pH from 3.7 to 7.4. Buffers with pH 3.7, 4.0, 4.6, 5.2 and 5.6 are 100 mM sodium acetate buffers. Buffers with pH 5.8, 6.4, 7.0 and 8.0 are based on Phosphate-Buffered Saline (PBS), with addition of 12 N HCl or 1 M NaOH to adjust the pH. Bovine serum albumin (BSA) is added to the buffer at a concentration of 100 ug/ml. Sialidase at a final concentration of 300 ng/ml is then added to the buffer. A sialidase inhibitor is then added to the mixture at a series of final concentrations. The reaction mixture is incubated for 30 minutes to allow the inhibitor to bind the sialidase. The fluorometric substrate 4MU-NANA [2′-(4-Methylumbelliferyl)-α-D-N-acetylneuraminic acid sodium salt hydrate is then added at a final concentration of 200 μM. Control reactions have no added inhibitor. The total volume of each reaction mixture is 0.1 ml. The cleavage of 4MU-NANA is then monitored by fluorescence every 20 minutes for 5 hours with excitation light at 360 nm and the fluorescence emission at 460 nm.
The fluorescence in the absence of sialidases is subtracted from all readings. The fluorescence of known concentrations of 4-methylumbelliferone is used to convert fluorescence to moles of product. […]

[6] = test system: human pulmonary fibroblasts; test: human pulmonary fibroblasts cultured with TGF-β1; format: cell-based; details: 10 ng/ml TGF-β1, three days
Method: (§1) TGF-β1 is strongly associated with fibrosis so its effects on sialidase expression were determined. Human lung adenocarcinoma cell line A549, human small airway epithelial cells, human pulmonary fibroblasts, and human immune cells were cultured with or without 10 ng/ml of recombinant active TGF-β1, which is a standard concentration used in tissue culture experiments. After three days for A549 cells, airway epithelial cells, and fibroblasts, or five days for immune cells, the cells were stained with antibodies against sialidases.

[7] = test system: human small airway epithelial cells; test: sialidase staining of human small airway epithelial cells cultured with TGF-β1; format: cell-based; details: 10 ng/ml TGF-β1, three days
Method: as §1

human PBMC [8] = test: sialidase staining of human PBMC cultured with TGF-β1; format: cell-based; details: 10 ng/ml TGF-β1, five days
Method: as §1

A549 cells = test: sialidase staining of A549 cells cultured with TGF-β1; format: cell-based, human; details: 10 ng/ml TGF-β1, three days
Method: as §1

Chain of human NEU3 (Q9UQ49 whole entry): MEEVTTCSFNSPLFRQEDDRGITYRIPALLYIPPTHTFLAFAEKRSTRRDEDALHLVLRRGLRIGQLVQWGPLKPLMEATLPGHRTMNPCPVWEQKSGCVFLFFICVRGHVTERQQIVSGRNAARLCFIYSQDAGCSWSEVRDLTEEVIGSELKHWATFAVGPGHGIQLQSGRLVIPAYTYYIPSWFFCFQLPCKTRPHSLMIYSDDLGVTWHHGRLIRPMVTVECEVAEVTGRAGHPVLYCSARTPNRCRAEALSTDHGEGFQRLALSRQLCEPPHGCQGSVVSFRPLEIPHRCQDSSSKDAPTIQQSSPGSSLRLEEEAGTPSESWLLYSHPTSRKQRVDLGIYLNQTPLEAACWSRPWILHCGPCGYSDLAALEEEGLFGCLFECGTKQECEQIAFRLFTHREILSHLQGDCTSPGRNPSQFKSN

IC50 (human NEU3): 61 µM
Compound: CC(=O)N[C@H]1[C@H]([C@H](O)[C@H](O)CO)OC(C(=O)O)=C[C@@H]1O [Compound 1, N-Acetyl-2,3-dehydro-2-deoxyneuraminic acid, reference compound]
collagen deposition in the lungs (Sirius red) ([1]; 10 mg/kg daily i.p. starting 24 hours after bleomycin): reduced
collagen deposition in the lungs (Sirius red) ([1]; 10 mg/kg daily i.p. starting at day 10): reduced
TGF-β1 levels in lung tissue (staining) ([1]; daily injection starting at day 10): reduced TGF-β1 levels
effects of NEU2 and NEU3 on extracellular TGF-β1 (human PBMC [2]; inhibitor 3 μM, sialidases 200 ng/ml, 5 days, ELISA): blocked
NEU4 potentiation of fibrocyte differentiation (human PBMC [3]; 10 μg/ml DANA with 100 ng/ml NEU4): inhibited the NEU4 potentiation of fibrocyte differentiation
fibrocyte formation / differentiation (human PBMC [3]): inhibited fibrocyte differentiation

Compound: IL-6: recombinant human interleukin-6 (IL-6) (BioLegend)
levels of NEU3 in human monocytes and lymphocytes [4]: significantly increased

Compound: NEU1: recombinant human NEU1 (sialidase 1), human neuraminidase 1
Sialidase activity ([5]; pH 6.4): 12.8 ± 1.3 μmole/min/mg protein
Sialidase activity ([5]; pH 7.0): 7.2 ± 0.9 μmole/min/mg protein
accumulation of TGF-β1 (human PBMC [2]; recombinant sialidase 200 ng/ml, five days): no significant effect
ability of SAP to inhibit fibrocyte formation (human PBMC [3]; 100 ng/ml sialidase with 1 μg/ml SAP): did not potentiate fibrocyte differentiation or counteract SAP
fibrocyte formation / differentiation (human PBMC [3]): did not potentiate fibrocyte differentiation

Compound: SAP: human SAP (Calbiochem), serum amyloid protein
fibrocyte formation / differentiation (human PBMC [3]): No fibrocytes were detected

sialidase levels (antibody staining) ([6]; pulmonary fibroblasts): increase levels of NEU3
Compound: TGF-β1: recombinant active TGF-β1
proliferation of human pulmonary fibroblasts [6]: increased the proliferation
sialidase levels (antibody staining) [7]: increase levels of NEU3, and slightly increased levels of NEU1
sialidase levels (antibody staining) (human PBMC [8]): increased levels of NEU2 and NEU3 in some cells
sialidase levels (antibody staining) (A549 cells): increase levels of NEU3
